Columns and labels:
thromboxane synthetase = target: T1, thromboxane synthetase (Homo sapiens, UniProt P24557); assay: in vitro inhibition of the thromboxane synthetase enzyme (TxB2/PGF2 ratio); assay type: biochemical; conditions: 30 min incubation
T1 construct: crude microsomal preparation of thromboxane synthetase from lysed hyman platelets; from tissue; host or cells: lysed human (printed 'hyman') platelets, crude microsomes
T1 sequence (P24557 1-533): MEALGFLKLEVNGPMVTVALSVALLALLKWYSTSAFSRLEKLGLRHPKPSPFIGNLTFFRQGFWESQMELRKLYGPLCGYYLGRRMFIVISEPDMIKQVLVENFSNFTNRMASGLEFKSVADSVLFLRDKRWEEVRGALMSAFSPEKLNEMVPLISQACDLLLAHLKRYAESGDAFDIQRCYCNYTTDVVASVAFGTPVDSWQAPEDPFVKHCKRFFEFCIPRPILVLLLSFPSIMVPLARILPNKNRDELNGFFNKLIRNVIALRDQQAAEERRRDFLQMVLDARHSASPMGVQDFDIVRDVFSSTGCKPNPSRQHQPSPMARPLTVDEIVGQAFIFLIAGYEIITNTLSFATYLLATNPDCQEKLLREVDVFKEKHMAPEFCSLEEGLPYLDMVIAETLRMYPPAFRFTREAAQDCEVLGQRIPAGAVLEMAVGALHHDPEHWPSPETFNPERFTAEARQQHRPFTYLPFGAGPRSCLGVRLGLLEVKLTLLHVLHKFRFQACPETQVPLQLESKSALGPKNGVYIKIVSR
Protocol: Res. Comm. 74, 1432 (1977); the testing procedure is as follows:
^14 C-arachidonic acid is incubated with an enzyme preparation consisting of solubilized and partially purified prostaglandin cyclo-oxygenase from sheep seminal vesicles and a crude microsomal preparation of thromboxane synthetase from lysed hyman platelets. The test compound (dissolved in buffer, or if necessary, in a small amount of ethanol) is added to the incubation medium. At the end of the incubation period (30 minutes), Prostaglandin E2 (PGE2) is reduced to a mixture of Prostaglandin F2 α and F2 β (PGF2 α+β) by addition of sodium borohydride. The radioactive products and excess substrate are extracted into ethyl acetate; the extract is evaporated to dryness; the residue is dissolved in acetone, spotted on thin-layer plates and chromatographed in the solvent system toluene: acetone: glacial acetic acid (100 volumes: 100 volumes: 3 volumes). The radioactive zones are located; those corresponding to Thromboxane B2 (T×B2) and PGF2 α+β are transferred to liquid scintillation vials and counted. The ratio of counts for T×B2 /PGF2 α+β is calculated for each concentration of test compound and IC50 values are determined graphically as the concentration of test compound at which the ratio of T×B2 /PGF2 α+β is reduced to 50% of the control value.

aromatase = assay: in vivo inhibition of aromatase activity: suppression of ovarian estrogen content of PMS-hCG primed female rats; conditions: Rattus norvegicus, po
Protocol: Twenty-one-day-old female rats are injected subcutaneously with 10 IU pregnant mare serum gonadotropin (PMS). Two days later the same rats are injected subcutaneously with 30 IU human chorionic gonadrotropin (hCG). On the day following the hCG treatment the rats are injected subcutaneously with either propylene glycol (0.2 ml:p.o.) or with various doses of the test compound. […] Four hours after the injection of androstenedione the rats are killed and their ovaries removed and trimmed free of adhering tissue and stored in pairs at -40° C. To determine the total estrogen content of the ovaries, 1.5 ml of 0.05M aqueous potassium phosphate buffer, pH 7.4, and 0.2 ml of 0.1N aqueous sodium hydroxide are added to the tissues which are then homogenized. The homogenate is extracted with 15 ml of diethyl ether, 5 ml aliquots are radioimmunoassayed with antiserum having 100% cross reactivity with estrone, estradiol and estriol. The results are expressed as ng estrogen/pair of ovaries.

O=C(O)c1ccc(C2CCCc3cncn32)cc1 (stereo not drawn) [Example 9, 5-(p-Carboxyphenyl)-5,6,7,8-tetrahydroimidazo[1,5-a]-pyridine]
IC50 (thromboxane synthetase): ~900 nM

CCOC(=O)CC1CCc2cncn2C1c1ccc(C#N)cc1 (stereo not drawn) [Example 33, 5-(4-cyanophenyl)-6-ethoxycarbonylmethyl-5,6,7,8-tetrahydroimidazo[1,5-a]pyridine]
minimal effective dose (aromatase): 0.346 mg/kg

N#Cc1ccc(-c2cccc3cncn23)cc1 [Example 3, 5-(p-Cyanophenyl)imidazo[1,5-a]pyridine]
minimal effective dose (aromatase): 0.013 mg/kg

— US4889861A, “Substituted imidazo[1,5-a]pyridine derivatives and other substituted bicyclic derivatives and their use as aromatase inhibitors” (Ciba-Geigy Corp., priority 1987, dated 1989)
